# Assay results reported in patent publication US12285459B2, “Saposin-A derived peptides and uses thereof” (CHILDREN'S MEDICAL CENTER CORPORATION, priority 2011, dated 2025).
# Values joined by “and” are separate entries in the source; they are usually repeats but may differ in a detail not shown here. Identical values can stand only once. Non-standard residues stand in square brackets, D forms with d. Residues, ends and D or L forms follow the SMILES beside them. No end group written: not given here. PEG2000 = polyethylene glycol 2000 attached at the N-terminus
# Experiments:
# [1] = tested on: Tsp-1 expression; conditions: previously shown; cited from earlier work
# [2] = tested on: Tsp-1 and p53 expression in prostate fibroblasts; test: Tsp-1 and p53 expression in prostate fibroblasts treated with peptides, western blot; assay type: cell-based; conditions: western blot; 10 ug/mL, 16 hours
# Method: Methods of assaying the effects of a polypeptide described herein on Tsp-1 and p53 expression are described herein. Briefly, a control Psap alongside a test polypeptide, is applied to a cell culture of prostate fibroblasts. The conditioned media from PC3M-LN4 (LN4) and PC3 cells are used as controls, with PC3 as positive/stimulating control and LN4 as negative/inhibiting controls. After a period of incubation (˜16 h), the cells are harvested, rinsed, and lysed. The lysates are analyzed for the level of Tsp-1 and p53 expression by western blot analyses, with β-actin as the internal lysate protein loading control.
# These peptides were used to treat prostate and lung fibroblasts in vitro at a concentration of 10 ug/mL for 16 hours in ATCC-specified media supplemented with 0.1% FBS. Tsp-1 and p53 expression was analyzed by western blot as described previously (Kang, Y., et al., (2003) Cancer Cell 3:537-549.)
# [3] = Peptide stability in mouse plasma, LC/MS; assay type: in vitro ADME, Swiss-Webster mice; conditions: for Concentration: 800 ng/mL, 37° C.; for Percent of Nominal: nominal 800 ng/mL
# Method: (§1) human plasma (Lot #BCE012312PM1, K3 EDTA) was obtained from BioChemed Services (Winchester, VA) and was stored at −80° C. Young adult male Swiss-Webster mice were obtained from Taconic Farms, and were anesthetized with carbon dioxide, and exsanguinated by cardiac puncture. Blood was collected in to tubes containing K2 EDTA and cooled in ice. Plasma was prepared by centrifugation for 10 min at 3000 g and 4° C. Mouse plasma and blood was used on the day of harvest.
# (§2) Quenched matrix (human and mouse plasma) samples were prepared from one volume of plasma precipitated with three volumes of 9:1 acetonitrile:water at 4° C. and centrifuged for 10 min at 3000 g and 4° C., and the supernatant was used to prepare standard curve samples. A stock solution of 20 mg/mL Ac-DWLP-amide (SEQ ID NO: 133, Ac=acetyl group, amide=amide group) and 20 mg/mL Ac-dWlP-amide (SEQ ID NO: 132, DWLP with D-amino acids D and L indicated by lower case) was prepared in distilled water. Each peptide stock (20 mg/mL) was used to prepare a dilution in phosphate buffered saline (PBS) at 1 mg/mL and those samples were further diluted in PBS to prepare 100 and 50 μg/mL solutions. The 100 and 50 μg/mL solutions were added to the quenched matrix supernatant at concentrations equivalent to 0, 300, 1000, 3000, and 10000 ng/mL pre-quench plasma concentrations to prepare standard curve samples. Triplicate aliquots (100 μL) of each standard curve sample were diluted in 100 μL water prior to analysis by LC/MS.
# (§3) The two peptides were formulated in PBS (40 μg/mL), and incubated with human and mouse plasma at 37° C. in polypropylene tubes at a concentration of 800 ng/mL in duplicate. Incubation aliquots (100 μL) were removed at 0, 15, 30, and 60 min and immediately quenched by the addition of 300 μL 9:1 acetonitrile:water, vortexed and centrifuged for 10 min at 3000 g and 4° C. Then 100 μL of each supernatant was diluted with 100 μL PBS prior to analysis by LC/MS.
# (§4) Processed standard curve and incubation samples were analyzed using the method described in Table 1. The concentration of peptide in plasma was determined by extrapolation from the standard curve.
# [4] = Peptide stability in human plasma, LC/MS; assay type: in vitro ADME; conditions: for stability in human plasma / Concentration: 800 ng/mL, 37° C.; for stability in human plasma: 1 h; for Concentration / Percent of Nominal: human plasma; for Percent of Nominal: nominal 800 ng/mL
# Method: as §1, §2, §3, §4
# [5] = Peptide in plasma prepared from spiked mouse blood (partition into red blood cells), LC/MS; assay type: in vitro ADME, Swiss-Webster mice; conditions: for Concentration in Mouse Plasma Prepared From Mouse Blood Incubated with Each Peptide: 800 ng/mL in chilled mouse blood, plasma prepared after five minutes; for partition between plasma fraction and red blood cells: mouse blood, 800 ng/mL
# Method: as §1
# The two peptides were formulated as for plasma and introduced into mouse blood chilled in an ice bath at a concentration of 800 ng/mL in duplicate. Five minutes after adding to blood, plasma was prepared and duplicate aliquots were extracted (as above) and analyzed by LC/MS.
# as §4
# [6] = tested on: primary ovarian cancer cells; test: Intraperitoneal metastatic ovarian cancer model, bioluminescence; assay type: in vivo, CB-17 SCID mice; conditions: 2 mg/kg QOD from day 17
# Method: For metastatic ovarian cancer cell injections, 5×10^6 viable primary ovarian cancer cells were injected into CB-17 SCID mice intraperitoneally in a volume of 0.1 ml. Tumor growth was monitored by live animal bioluminescence imaging (Xenogen) once per week. For in vivo determination of the metastatic burden, mice were anaesthetized and injected intraperitoneally with 75 mg/kg of D-luciferin (100 uL of 30 mg/mL in PBS). Metastatic growth was monitored over time using bioluminescence imaging performed with mice in a supine position 5 min after D-luciferin injection with a Xenogen IVIS system coupled to Living Image acquisition and analysis software (Xenogen). For BLI plots, photon flux was calculated for each mouse by using the same circular region of interest encompassing the abdomen of the mouse.
# To determine whether DWLPK (SEQ ID NO: 4) could inhibit or regress existing ovarian metastases 5×10^6 primary ovarian cancer cells were injected intraperitoneally into SCID mice. After 17 days treatment was initiated with DWLPK (SEQ ID NO: 4) at a dose of 40 mg/kg QD, cisplatin at a dose of 2 mg/kg QOD, a combination of DWLPK (SEQ ID NO: 4) and cisplatin at the same doses, or PBS (control). It was observed that DWLPK (SEQ ID NO: 4) treatment completely regressed the metastases in 11/12 after 30 days and the regressed the metastases in the remaining mice by 99% (FIG. 20).
# [7] = tested on: Tsp-1 and p53 expression in lungs; test: Tumor-free mice given PC3M-LN4 conditioned media plus peptide; Tsp-1/p53 in tissue by western blot; assay type: in vivo, C57Bl6 mice; conditions: PC3M-LN4 CM plus 30 mg/kg pegylated peptide daily, 9 days; compared with PC3 conditioned media
# Method: For tumor-free analysis C57Bl6 mice were treated with 200 uL of PC3M-LN4 media alone or in combination with peptides described above at dose of 30 mg/kg/day for 5 days. After treatment the animals were sacrificed and the lungs were harvested, lysed and analyzed for Tsp-1 and p53 protein levels as described previously (Kang et al).
# It was sought to determine whether there was a smaller domain within saposin A that contained the p53/Tsp-1 stimulating activity. […] C57Bl6 mice (5-6 wks old) were injected daily with 300 uL of serum free DMEM, conditioned media (CM) from non-metastatic PC3 cells, CM from metastatic PC3M-LN4 cells and PC3M-LN4 CM plus 30 mg/kg of the pegylated 6 amino acid polypeptide (PEG2000-CDWLPK (SEQ ID NO: 46)) or 30 mg/kg of the pegylated 18 amino acid polypeptide (PEG2000-[…] (SEQ ID NO: 47)). After 9 days the mice were euthanized and the lungs and livers harvested and either fixed in formalin or lysed for Western blot analysis.
# Finally, the effect of substituting D-amino acids at different residues of the 4-amino acid peptide was analyzed. By Western blot analysis it was observed that substituting the first and third or second and fourth residues, in combination, had no effect on the Tsp-1 stimulating activity in vitro. These peptides were then tested in the tumor-free animal model described above. The normal 4-amino acid peptide and the D-amino acid substituted peptides were injected in combination with conditioned media from PC3M-LN4 cells in adult C57Bl6 mice for 4 days at a dose of 10 or 30 mg/kg/day via i.p. injection. Mice were sacrificed 24 hours after the treatment on day 4. The lungs of these mice were harvested and analyzed the Tsp-1 expression by Western blot analysis. […]
# Methods: 18 C57Bl6 mice were injected with Ac-dWlP-amide (SEQ ID NO: 132) at a dose of 30 mg/kg in a volume of 100 μL via intraperitoneal (i.p) injections in serum starved conditioned media from PC3M-LN4 prostate cancer cells. […] The relative intensity of the Tsp-1 (normalized to β-Actin) bands were determined using a Bio-Rad Chemi-Doc XRS system.
# [8] = mouse, in vivo; cited from earlier work
compound,measurement,setting,value
LEKTCDWLPKPNMSASCKEI,stimulating Tsp-1 expression in vitro and in vivo,[1],capable of stimulating Tsp-1 expression in vitro and in vivo
"CDWLPKPNMSASC (also: cyclized, mode not given here) [13-amino acid cyclized peptide spanning residues 35-47 of saposin A]",stimulating Tsp-1 expression in vitro and in vivo,[1],capable of stimulating Tsp-1 expression in vitro and in vivo
same,stimulation of the expression of p53 and Tsp-1 in prostate fibroblasts,[2],able to stimulate the expression of p53 and Tsp-1
CC(=O)N[C@@H](CC(=O)O)C(=O)N[C@@H](Cc1c[nH]c2ccccc12)C(=O)N[C@@H](CC(C)C)C(=O)N1CCC[C@H]1C(N)=O [Ac-DWLP-amide] (Ac-DWLP-NH2),Concentration,[3]; 0 min,869 ng/mL and 955 ng/mL
same,Percent of Nominal,[3]; 0 min,108.6% and 119.4%
same,Concentration,[3]; 15 min,669 ng/mL and 605 ng/mL
same,Percent of Nominal,[3]; 15 min,83.6% and 75.6%
same,Concentration,[3]; 30 min,428 ng/mL and 400 ng/mL
same,Percent of Nominal,[3]; 30 min,53.5% and 50.0%
same,Concentration,[3]; 60 min,398 ng/mL and 463 ng/mL
same,Percent of Nominal,[3]; 60 min,49.8% and 57.9%
same,stability in human plasma,[4],good stability
same,Concentration,[4]; 0 min,649 ng/mL and 784 ng/mL
same,Percent of Nominal,[4]; 0 min,81.1% and 98.0%
same,Concentration,[4]; 15 min,760 ng/mL and 817 ng/mL
same,Percent of Nominal,[4]; 15 min,95.0% and 102.1%
same,Concentration,[4]; 30 min,538 ng/mL and 607 ng/mL
same,Percent of Nominal,[4]; 30 min,67.3% and 75.9%
same,Concentration,[4]; 60 min,634 ng/mL and 616 ng/mL
same,Percent of Nominal,[4]; 60 min,79.3% and 77.0%
same,Concentration in Mouse Plasma Prepared From Mouse Blood Incubated with Each Peptide,[5],1580 ng/mL and 1510 ng/mL and 1530 ng/mL and 1610 ng/mL
same,partition between plasma fraction and red blood cells,[5],remain primarily in the plasma fraction and do not partition into red blood cells
"N.N.[Cl][Pt][Cl] [cisplatin, reference compound]",course of tumors under cisplatin treatment,[6],developed resistance to cisplatin treatment after 20 days and began growing again
PEG2000-EKTCDWLPKPNMSASCKE (cysteine pairing not given here),stimulating the expression of Tsp-1 in the lung and liver,[7],"as, or more, effective than PC3 conditioned media"
CO[C@@H]1[C@H](OC(=O)NC(=O)CCl)CC[C@]2(CO2)[C@H]1[C@@]1(C)O[C@@H]1CC=C(C)C [TNP-470],development of obesity in mice,[8],prevent diet-induced and genetic obesity
same,vascularity in the adipose tissue,[8],reduced vascularity in the adipose tissue
CC(=O)N[C@H](CC(=O)O)C(=O)N[C@@H](Cc1c[nH]c2ccccc12)C(=O)N[C@H](CC(C)C)C(=O)N1CCC[C@H]1C(N)=O [Ac-dWlP-amide] (Ac-[dD]W[dL]P-NH2),Concentration,[3]; 0 min,858 ng/mL and 859 ng/mL
same,Percent of Nominal,[3]; 0 min,107.3% and 107.4%
same,Concentration,[3]; 15 min,520 ng/mL and 462 ng/mL
same,Percent of Nominal,[3]; 15 min,65.0% and 57.8%
same,Concentration,[3]; 30 min,541 ng/mL and 496 ng/mL
same,Percent of Nominal,[3]; 30 min,67.6% and 62.0%
same,Concentration,[3]; 60 min,446 ng/mL and 469 ng/mL
same,Percent of Nominal,[3]; 60 min,55.8% and 58.6%
same,stability in human plasma,[4],stable
same,Concentration,[4]; 0 min,1050 ng/mL and 779 ng/mL
same,Percent of Nominal,[4]; 0 min,131.3% and 97.4%
same,Concentration,[4]; 15 min,941 ng/mL and 875 ng/mL
same,Percent of Nominal,[4]; 15 min,117.6% and 109.4%
same,Concentration,[4]; 30 min,863 ng/mL and 818 ng/mL
same,Percent of Nominal,[4]; 30 min,107.9% and 102.3%
same,Concentration,[4]; 60 min,1100 ng/mL and 901 ng/mL
same,Percent of Nominal,[4]; 60 min,137.5% and 112.6%
same,Concentration in Mouse Plasma Prepared From Mouse Blood Incubated with Each Peptide,[5],1420 ng/mL and 1380 ng/mL and 1060 ng/mL and 1010 ng/mL
same,partition between plasma fraction and red blood cells,[5],remain primarily in the plasma fraction and do not partition into red blood cells
PEG2000-CDWLPK,stimulating the expression of Tsp-1 in the lung and liver,[7],"as, or more, effective than PC3 conditioned media"
